According to US8946275B2, “Treatment of cancer using hypoxia activated prodrugs” (Threshold Pharmaceuticals, Inc., priority 2008, dated 2015):

System: H460 NSCLC
Test: H460 ectopic lung cancer model, TH-302 with pemetrexed
Format: in vivo, nude mice
Settings: PMX 150 mg/kg 1/wkx2wks IP; TH-302 50 mg/kg 5/wkx2wks IP; alone or combined
Method: Anti-tumor activity was evaluated by tumor growth inhibition (TGI) and tumor growth delay (TGD). Body weight change, gross and microscopic assessment of tissue changes, and hematologic assays served for toxicity assessment.
Testing in these models was conducted generally as follows. 1×10^6 H460 human non-small cell lung cancer or HT1080 human fibrosarcoma cells were implanted in the subcutaneous space of the right flank to obtain ectopic xenograft models. For the orthotopic pancreatic model, red-fluorescent protein (RFP) expressing MIA PaCa2 tumors were surgically implanted on the surface of the pancreas. The prostate metastatic model was created by the intraventricular injection of 3×10^6 luciferase-expressing PC-3 cells. […] API grade of TH-302 was used in all experiments while docetaxel, gemcitabine, doxorubicin and pemetrexed were purchased from commercial sources.

In the case of `Cn1c(COP(=O)(NCCBr)NCCBr)cnc1[N+](=O)[O-]` [TH-302, (2-bromoethyl)({[(2-bromoethyl)amino][(2-nitro-3-methylimidazol-4-yl)methoxy]phosphoryl})amine], the “Days to 500 mm^3” value is reported as 26 days, the “Days to 1000 mm^3” value is reported as 34 days and the T/C is reported as 38.4%. For the same compound, the “TGD500, Days (vs. vehicle)” value was 12 days, the “TGD1000, Days (vs. vehicle)” value was 10 days and the TGI was 61.6%. For the same compound, the “Tn (tumor volume on Day n)” value was 507.13.
